These results are taken from PMC7447640, “Synthesis, antioxidant properties and neuroprotection of α-phenyl-tert-butylnitrone derived HomoBisNitrones in in vitro and in vivo ischemia models” (Scientific Reports, 2020).

The assay has as its target T1, soybean lipoxygenase (LOX) (Glycine max, UniProt P08170).
T1 construct: gene LOX1.1
T1 sequence (P08170 1-839): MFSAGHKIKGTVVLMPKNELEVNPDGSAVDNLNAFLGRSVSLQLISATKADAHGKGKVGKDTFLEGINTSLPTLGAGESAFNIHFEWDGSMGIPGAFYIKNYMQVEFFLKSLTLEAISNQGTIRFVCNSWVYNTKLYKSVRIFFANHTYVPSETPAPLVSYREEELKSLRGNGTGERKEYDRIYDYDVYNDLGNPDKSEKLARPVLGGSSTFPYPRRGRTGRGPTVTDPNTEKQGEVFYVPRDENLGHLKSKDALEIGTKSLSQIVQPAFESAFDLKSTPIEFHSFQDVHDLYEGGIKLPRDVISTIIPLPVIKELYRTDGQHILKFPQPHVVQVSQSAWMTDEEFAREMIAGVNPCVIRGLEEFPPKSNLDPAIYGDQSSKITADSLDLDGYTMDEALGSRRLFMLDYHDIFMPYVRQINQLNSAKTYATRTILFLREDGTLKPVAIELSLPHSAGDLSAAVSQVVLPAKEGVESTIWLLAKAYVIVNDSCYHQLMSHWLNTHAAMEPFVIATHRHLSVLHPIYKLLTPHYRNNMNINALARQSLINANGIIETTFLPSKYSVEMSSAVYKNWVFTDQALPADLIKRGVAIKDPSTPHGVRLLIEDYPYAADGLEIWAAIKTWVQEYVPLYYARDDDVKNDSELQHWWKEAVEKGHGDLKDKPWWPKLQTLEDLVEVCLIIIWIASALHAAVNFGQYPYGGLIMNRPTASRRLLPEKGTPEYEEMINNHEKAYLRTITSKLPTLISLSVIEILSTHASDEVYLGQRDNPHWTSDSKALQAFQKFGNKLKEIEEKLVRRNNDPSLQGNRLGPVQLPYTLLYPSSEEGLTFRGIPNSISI
The experiment in a line: soybean lipoxygenase, linoleate oxidation at […] nm. It counts as biochemical. To be noted: read-out: LOX inhibition (IC50 [μM]/%).
In the case of `C/[N+]([O-])=C/c1ccccc1/C=[N+](/C)[O-]` [HBN7, (1Z,1′Z)-1,1′-(1,2-Phenylene)bis(N-methylmethanimineoxide)], the IC50 was determined as 60 µM.

`[O-]/[N+](=C\c1ccccc1/C=[N+](\[O-])Cc1ccccc1)Cc1ccccc1` [HBN9, (1Z,1′Z)-1,1′-(1,2-Phenylene)bis(N-benzylmethanimineoxide)]: the IC50 was 85 µM.

As to `CC(C)(C)/[N+]([O-])=C/c1ccccc1/C=[N+](\[O-])C(C)(C)C` [HBN8, (1Z,1′Z)-1,1′-(1,2-Phenylene)bis(N-tert-butylmethanimineoxide)], the IC50 came to 57.5 µM.
